Assays:
[1] = Molar enthalpy of transition or fusion; conditions: Crystal
[2] = molar heat capacity at constant pressure; conditions: 101.33 kPa

O=C1CCCCC1C1(O)CCCCC1 (stereo unspecified) [1'-hydroxy-[1,1'-bicyclohexyl]-2-one]
[1]
Conditions	Molar enthalpy of transition or fusion [kcal/mol]
Adiabatic calorimetry	4.974
DSC	4.95

[2], Crystal
Conditions	molar heat capacity at constant pressure [J/K/mol]
5 K	0.496
10 K	3.909
15 K	10.08
20 K	17.48
25 K	25.17
30 K	32.48
35 K	39.18
40 K	45.5
45 K	51.25
50 K	56.58
60 K	66.47
70 K	75.55
80 K	84.14
90 K	92.37
100 K	100.7
110 K	108.6
120 K	116.4
130 K	124.2
140 K	132
150 K	139.8
160 K	147.7
170 K	155.8
180 K	163.9
190 K	171.9
200 K	180
210 K	188.2
220 K	196.6
230 K	205.1
240 K	213.9
250 K	223.2
260 K	233.2
270 K	243.9
280 K	255.5
290 K	268
300 K	281.5
306.75 K	291.3

[2], Liquid, Large sample (1 g) DSC
Conditions	molar heat capacity at constant pressure [J/K/mol]
306.75 K	350
310 K	352
320 K	359.3
330 K	367.5
340 K	376.8
350 K	387.2
360 K	398.7
370 K	411.2
